Test results as given in ChEMBL document CHEMBL3352542, “Synthesis, biological evaluation and molecular modeling study of 2-(1,3,4-thiadiazolyl-thio and 4-methyl-thiazolyl-thio)-quinazolin-4-ones as a new class of DHFR inhibitors” (Bioorg Med Chem Lett, 2014).
The source made the active and inactive calls. The rule behind the calls is not given here.

Experiments:
SF-268 = experiment: Growth inhibition of human SF268 cells at 10 uM after 48 hrs; type: functional
MDA-MB-435 = experiment: Growth inhibition of human MDA-MB-435 cells at 10 uM after 48 hrs; type: functional
Escherichia coli = experiment: Antimicrobial activity against Escherichia coli assessed as inhibition zone at 200 ug/disk after 24 hrs by disc-diffusion method; type: functional; conditions: read-out: IZ
HL-60(TB) = experiment: Growth inhibition of human HL-60(TB) cells at 10 uM after 48 hrs; type: functional
NCI-H23 = experiment: Growth inhibition of human NCI-H23 cells at 10 uM after 48 hrs; type: functional
NCI-H522 = experiment: Growth inhibition of human NCI-H522 cells at 10 uM after 48 hrs; type: functional
Candida albicans = experiment: Antimicrobial activity against Candida albicans assessed as inhibition zone at 200 ug/disk after 24 hrs by disc-diffusion method; type: functional; conditions: read-out: IZ
CAKI-1 = experiment: Growth inhibition of human CAKI-1 cells at 10 uM after 48 hrs; type: functional
HT-29 = experiment: Growth inhibition of human HT-29 cells at 10 uM after 48 hrs; type: functional
Bacillus subtilis [1] = experiment: Antimicrobial activity against Bacillus subtilis assessed as inhibition zone at 200 ug/disk after 24 hrs by disc-diffusion method; type: functional; conditions: read-out: IZ
OVCAR-4 = experiment: Growth inhibition of human OVCAR4 cells at 10 uM after 48 hrs; type: functional
SK-MEL-5 = experiment: Growth inhibition of human SK-MEL-5 cells at 10 uM after 48 hrs; type: functional
HCT-116 = experiment: Growth inhibition of human HCT116 cells at 10 uM after 48 hrs; type: functional
NCI-H460 = experiment: Growth inhibition of human NCI-H460 cells at 10 uM after 48 hrs; type: functional
786-0 = experiment: Growth inhibition of human 786-0 cells at 10 uM after 48 hrs; type: functional
NCI/ADR-RES = experiment: Growth inhibition of human NCI-ADR-RES cells at 10 uM after 48 hrs; type: functional
CCRF-CEM = experiment: Growth inhibition of human CCRF-CEM cells at 10 uM after 48 hrs; type: functional
Pseudomonas aeruginosa = experiment: Antimicrobial activity against Pseudomonas aeruginosa assessed as inhibition zone at 200 ug/disk after 24 hrs by disc-diffusion method; type: functional; conditions: read-out: IZ
MOLT-4 = experiment: Growth inhibition of human MOLT4 cells at 10 uM after 48 hrs; type: functional
SN12C = experiment: Growth inhibition of human SN12C cells at 10 uM after 48 hrs; type: functional
Malme-3M = experiment: Growth inhibition of human MALME-3M cells at 10 uM after 48 hrs; type: functional
PC-3 = experiment: Growth inhibition of human PC3 cells at 10 uM after 48 hrs; type: functional
U-251 = experiment: Growth inhibition of human U251 cells at 10 uM after 48 hrs; type: functional
RPMI-8226 = experiment: Growth inhibition of human RPMI8226 cells at 10 uM after 48 hrs; type: functional
KM12 = experiment: Growth inhibition of human KM12 cells at 10 uM after 48 hrs; type: functional
LOX IMVI = experiment: Growth inhibition of human LOXIMVI cells at 10 uM after 48 hrs; type: functional
Hs-578T = experiment: Growth inhibition of human Hs 578T cells at 10 uM after 48 hrs; type: functional
MCF7 = experiment: Growth inhibition of human MCF7 cells at 10 uM after 48 hrs; type: functional
MDA-MB-468 = experiment: Growth inhibition of human MDA-MB-468 cells at 10 uM after 48 hrs; type: functional
MDA-MB-231 = experiment: Growth inhibition of human MDA-MB-231 cells at 10 uM after 48 hrs; type: functional
SNB-75 = experiment: Growth inhibition of human SNB75 cells at 10 uM after 48 hrs; type: functional
A498 = experiment: Growth inhibition of human A498 cells at 10 uM after 48 hrs; type: functional
SW-620 = experiment: Growth inhibition of human SW620 cells at 10 uM after 48 hrs; type: functional
Bacillus subtilis [2] = experiment: Antimicrobial activity against Bacillus subtilis assessed as inhibition of visible growth after 24 hrs by disc-diffusion method; type: functional, organism-based
T47D = experiment: Growth inhibition of human T47D cells at 10 uM after 48 hrs; type: functional
HOP-92 = experiment: Growth inhibition of human HOP92 cells at 10 uM after 48 hrs; type: functional
Staphylococcus aureus [3] = experiment: Antimicrobial activity against Staphylococcus aureus assessed as inhibition zone at 200 ug/disk after 24 hrs by disc-diffusion method; type: functional; conditions: read-out: IZ
K562 = experiment: Growth inhibition of human K562 cells at 10 uM after 48 hrs; type: functional
SNB-19 = experiment: Growth inhibition of human SNB19 cells at 10 uM after 48 hrs; type: functional
SF-295 = experiment: Growth inhibition of human SF295 cells at 10 uM after 48 hrs; type: functional
RXF 393 = experiment: Growth inhibition of human RXF393 cells at 10 uM after 48 hrs; type: functional
OVCAR-3 = experiment: Growth inhibition of human OVCAR3 cells at 10 uM after 48 hrs; type: functional
OVCAR-8 = experiment: Growth inhibition of human OVCAR8 cells at 10 uM after 48 hrs; type: functional
UO-31 = experiment: Growth inhibition of human UO31 cells at 10 uM after 48 hrs; type: functional
COLO 205 = experiment: Growth inhibition of human COLO205 cells at 10 uM after 48 hrs; type: functional
A549 = experiment: Growth inhibition of human A549 cells at 10 uM after 48 hrs; type: functional
M14 = experiment: Growth inhibition of human M14 cells at 10 uM after 48 hrs; type: functional
HCT-15 = experiment: Growth inhibition of human HCT15 cells at 10 uM after 48 hrs; type: functional
NCI-H226 = experiment: Growth inhibition of human NCI-H226 cells at 10 uM after 48 hrs; type: functional
Dihydrofolate reductase = molecular target: T1, Dihydrofolate reductase (Bos taurus, UniProt P00376); experiment: Inhibition of bovine liver DHFR
T1 sequence (P00376 whole entry): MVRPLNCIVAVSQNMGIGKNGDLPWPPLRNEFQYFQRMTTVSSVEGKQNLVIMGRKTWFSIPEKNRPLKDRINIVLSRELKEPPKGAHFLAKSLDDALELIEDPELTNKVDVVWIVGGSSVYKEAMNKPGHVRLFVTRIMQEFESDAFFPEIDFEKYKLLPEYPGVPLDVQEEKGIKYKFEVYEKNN

OVCAR-5 = experiment: Growth inhibition of human OVCAR5 cells at 10 uM after 48 hrs; type: functional
BT-549 = experiment: Growth inhibition of human BT549 cells at 10 uM after 48 hrs; type: functional
TK-10 = experiment: Growth inhibition of human TK10 cells at 10 uM after 48 hrs; type: functional
ACHN = experiment: Growth inhibition of human ACHN cells at 10 uM after 48 hrs; type: functional
HCC 2998 = experiment: Growth inhibition of human HCC2998 cells at 10 uM after 48 hrs; type: functional
SF-539 = experiment: Growth inhibition of human SF539 cells at 10 uM after 48 hrs; type: functional
UACC-257 = experiment: Growth inhibition of human UACC257 cells at 10 uM after 48 hrs; type: functional
SR = experiment: Growth inhibition of human SR cells at 10 uM after 48 hrs; type: functional
Staphylococcus aureus [4] = experiment: Antimicrobial activity against Staphylococcus aureus assessed as inhibition of visible growth after 24 hrs by disc-diffusion method; type: functional, organism-based
UACC-62 = experiment: Growth inhibition of human UACC62 cells at 10 uM after 48 hrs; type: functional

Compound: Cc1ccc(-n2c(Sc3sc(N)nc3C)nc3ccc(Cl)cc3c2=O)cc1
- growth inhibition (GI) (SF-268): inactive
- growth inhibition (GI) (MDA-MB-435): inactive
- zone of inhibition at 200 µg/disc (Escherichia coli): 8 mm
- growth inhibition (GI) (HL-60(TB)): inactive
- growth inhibition (GI) (NCI-H23): inactive
- growth inhibition (GI) (NCI-H522): inactive
- zone of inhibition at 200 µg/disc (Candida albicans): 8 mm
- growth inhibition (GI) (CAKI-1): inactive
- growth inhibition (GI) (HT-29): inactive
- zone of inhibition at 200 µg/disc (Bacillus subtilis [1]): 16 mm
- growth inhibition (GI) (OVCAR-4): inactive
- growth inhibition (GI) (SK-MEL-5): inactive
- growth inhibition (GI) (HCT-116): inactive
- growth inhibition (GI) (NCI-H460): inactive
- growth inhibition (GI) (786-0): inactive
- growth inhibition (GI) (NCI/ADR-RES): inactive
- growth inhibition (GI) (CCRF-CEM): inactive
- zone of inhibition at 200 µg/disc (Pseudomonas aeruginosa): 8 mm
- growth inhibition (GI) (MOLT-4): inactive
- growth inhibition (GI) (SN12C): inactive
- growth inhibition (GI) (Malme-3M): inactive
- growth inhibition (GI) (PC-3): inactive
- growth inhibition (GI) (U-251): inactive
- growth inhibition (GI) (RPMI-8226): inactive
- growth inhibition (GI) (KM12): inactive
- growth inhibition (GI) (LOX IMVI): inactive
- growth inhibition (GI) (Hs-578T): inactive
- growth inhibition (GI) (MCF7): inactive
- growth inhibition (GI) (MDA-MB-468): inactive
- growth inhibition (GI) (MDA-MB-231): inactive
- growth inhibition (GI) (SNB-75): inactive
- growth inhibition (GI) (A498): inactive
- growth inhibition (GI) (SW-620): inactive
- Activity (Bacillus subtilis [2]): Active
- growth inhibition (GI) (T47D): inactive
- growth inhibition (GI) (HOP-92): inactive
- zone of inhibition at 200 µg/disc (Staphylococcus aureus [3]): 18 mm
- growth inhibition (GI) (K562): inactive
- growth inhibition (GI) (SNB-19): inactive
- growth inhibition (GI) (SF-295): inactive
- growth inhibition (GI) (RXF 393): inactive
- growth inhibition (GI) (OVCAR-3): inactive
- growth inhibition (GI) (OVCAR-8): inactive
- growth inhibition (GI) (UO-31): inactive
- growth inhibition (GI) (COLO 205): inactive
- growth inhibition (GI) (A549): inactive
- growth inhibition (GI) (M14): inactive
- growth inhibition (GI) (HCT-15): inactive
- growth inhibition (GI) (NCI-H226): inactive
- IC50 (Dihydrofolate reductase): 5 µM
- growth inhibition (GI) (OVCAR-5): inactive
- growth inhibition (GI) (BT-549): inactive
- growth inhibition (GI) (TK-10): inactive
- growth inhibition (GI) (ACHN): inactive
- growth inhibition (GI) (HCC 2998): inactive
- growth inhibition (GI) (SF-539): inactive
- growth inhibition (GI) (UACC-257): inactive
- growth inhibition (GI) (SR): inactive
- Activity (Staphylococcus aureus [4]): Active
- growth inhibition (GI) (UACC-62): inactive

Compound: COc1cc2nc(Sc3sc(N)nc3C)n(Cc3ccccc3)c(=O)c2cc1OC
- growth inhibition (GI) (SF-268): inactive
- growth inhibition (GI) (MDA-MB-435): inactive
- zone of inhibition at 200 µg/disc (Escherichia coli): 8 mm
- growth inhibition (GI) (HL-60(TB)): inactive
- growth inhibition (GI) (NCI-H23): inactive
- growth inhibition (GI) (NCI-H522): inactive
- zone of inhibition at 200 µg/disc (Candida albicans): 8 mm
- growth inhibition (GI) (CAKI-1): inactive
- growth inhibition (GI) (HT-29): inactive
- zone of inhibition at 200 µg/disc (Bacillus subtilis [1]): 24 mm
- growth inhibition (GI) (OVCAR-4): inactive
- growth inhibition (GI) (SK-MEL-5): inactive
- growth inhibition (GI) (HCT-116): inactive
- growth inhibition (GI) (NCI-H460): inactive
- growth inhibition (GI) (786-0): inactive
- growth inhibition (GI) (NCI/ADR-RES): inactive
- growth inhibition (GI) (CCRF-CEM): inactive
- zone of inhibition at 200 µg/disc (Pseudomonas aeruginosa): 8 mm
- growth inhibition (GI) (MOLT-4): inactive
- growth inhibition (GI) (SN12C): inactive
- growth inhibition (GI) (Malme-3M): inactive
- growth inhibition (GI) (PC-3): inactive
- growth inhibition (GI) (U-251): inactive
- growth inhibition (GI) (RPMI-8226): inactive
- growth inhibition (GI) (KM12): inactive
- growth inhibition (GI) (LOX IMVI): inactive
- growth inhibition (GI) (Hs-578T): inactive
- growth inhibition (GI) (MCF7): inactive
- growth inhibition (GI) (MDA-MB-468): inactive
- growth inhibition (GI) (MDA-MB-231): inactive
- growth inhibition (GI) (SNB-75): inactive
- growth inhibition (GI) (A498): inactive
- growth inhibition (GI) (SW-620): inactive
- Activity (Bacillus subtilis [2]): Active
- growth inhibition (GI) (T47D): inactive
- growth inhibition (GI) (HOP-92): inactive
- zone of inhibition at 200 µg/disc (Staphylococcus aureus [3]): 20 mm
- growth inhibition (GI) (K562): inactive
- growth inhibition (GI) (SNB-19): inactive
- growth inhibition (GI) (SF-295): inactive
- growth inhibition (GI) (RXF 393): inactive
- growth inhibition (GI) (OVCAR-3): inactive
- growth inhibition (GI) (OVCAR-8): inactive
- growth inhibition (GI) (UO-31): inactive
- growth inhibition (GI) (COLO 205): inactive
- growth inhibition (GI) (A549): inactive
- growth inhibition (GI) (M14): inactive
- growth inhibition (GI) (HCT-15): inactive
- growth inhibition (GI) (NCI-H226): inactive
- IC50 (Dihydrofolate reductase): 6 µM
- growth inhibition (GI) (OVCAR-5): inactive
- growth inhibition (GI) (BT-549): inactive
- growth inhibition (GI) (TK-10): inactive
- growth inhibition (GI) (ACHN): inactive
- growth inhibition (GI) (HCC 2998): inactive
- growth inhibition (GI) (SF-539): inactive
- growth inhibition (GI) (UACC-257): inactive
- growth inhibition (GI) (SR): inactive
- Activity (Staphylococcus aureus [4]): Active
- growth inhibition (GI) (UACC-62): inactive
